According to the supplement of paper PMC13380429:

Legend:
Details in all cases: 72 h
[1] = system: Caco-2; assay: cell viability relative to DMSO; higher = less toxic
[2] = system: Calu-3; assay: as above
[3] = system: HepG2; assay: as above
[4] = system: U2OS; assay: as above
[5] = system: Vero E6; assay: as above
[6] = system: Caco-2; assay: relative viability EC50 (midpoint between 100% and the lowest measured viability); higher = less toxic
[7] = system: Calu-3; assay: as above
[8] = system: HepG2; assay: as above
[9] = system: U2OS; assay: as above
[10] = system: Vero E6; assay: as above
[11] = system: Caco-2; assay: drug sensitivity score (DSS) for viability; higher = more toxic; extreme values may be limits of the assay
[12] = system: Calu-3; assay: as above
[13] = system: HepG2; assay: as above
[14] = system: U2OS; assay: as above
[15] = system: Vero E6; assay: as above

Row | Compound | cell viability ([1]; 1 nM) [%] | cell viability ([1]; 10 nM) [%] | cell viability ([1]; 100 nM) [%] | cell viability ([1]; 1000 nM) [%] | cell viability ([1]; 10000 nM) [%] | cell viability ([2]; 1 nM) [%] | cell viability ([2]; 10 nM) [%] | cell viability ([2]; 100 nM) [%] | cell viability ([2]; 1000 nM) [%] | cell viability ([2]; 10000 nM) [%] | cell viability ([3]; 1 nM) [%] | cell viability ([3]; 10 nM) [%] | cell viability ([3]; 100 nM) [%] | cell viability ([3]; 1000 nM) [%] | cell viability ([3]; 10000 nM) [%] | cell viability ([4]; 1 nM) [%] | cell viability ([4]; 10 nM) [%] | cell viability ([4]; 100 nM) [%] | cell viability ([4]; 1000 nM) [%] | cell viability ([4]; 10000 nM) [%] | cell viability ([5]; 1 nM) [%] | cell viability ([5]; 10 nM) [%] | cell viability ([5]; 100 nM) [%] | cell viability ([5]; 1000 nM) [%] | cell viability ([5]; 10000 nM) [%] | relative viability EC50 [6] [µM] | relative viability EC50 [7] [µM] | relative viability EC50 [8] [µM] | relative viability EC50 [9] [µM] | relative viability EC50 [10] [µM] | drug sensitivity score [11] | drug sensitivity score [12] | drug sensitivity score [13] | drug sensitivity score [14] | drug sensitivity score [15]
1 | CC1=CC(=O)c2ccccc2C1=O [menadione] | 100 | 103 | 100 | 104 | 94.2 | 95.8 | 104 | 112 | 97.9 | 106 | 102 | 100 | 116 | 106 | 99 | 95.4 | 101 | 96.4 | 99.7 | 93.1 | 104 | 104 | 99.9 | 102 | 95.1 | > 10 | > 10 | > 10 | > 10 | > 10 | 0 | 0 | 0 | 0 | 0
2 | CCC(=O)O[C@]1(C(=O)COC(C)=O)CC[C@H]2[C@@H]3C[C@H](C)C4=CC(=O)C=C[C@]4(C)[C@H]3[C@@H](O)C[C@@]21C [methylprednisolone-aceponate] | 89.6 | 95.1 | 97.4 | 96.5 | 105 | 101 | 91.6 | 91.1 | 95.1 | 96.5 | 92.1 | 101 | 91.1 | 101 | 99.3 | 101 | 94.3 | 98.5 | 96.9 | 98.1 | 88 | 100 | 92.6 | 98.3 | 104 | > 10 | > 10 | > 10 | > 10 | > 10 | 0 | 0 | 0 | 0 | 0
3 | COc1ccc2cc1Oc1cc3c(cc1OC)CC[N+](C)(C)[C@H]3Cc1ccc(cc1)Oc1c(OC)c(OC)cc3c1[C@@H](C2)[N+](C)(C)CC3 [metocurine] | 95.7 | 92.2 | 94.8 | 108 | 105 | 102 | 88.4 | 105 | 96.5 | 93.2 | 93.3 | 115 | 86.2 | 108 | 111 | 97.6 | 99.3 | 106 | 102 | 99.4 | 91.5 | 96.8 | 91.6 | 102 | 105 | > 10 | > 10 | > 10 | > 10 | > 10 | 0 | 0 | 0 | 0 | 0
4 | CNC[C@@H]1CC[C@@H](N)[C@@H](O[C@H]2[C@H](O)[C@@H](O[C@H]3OC[C@](C)(O)[C@H](NC)[C@H]3O)[C@H](N)C[C@@H]2N)O1 [micronomicin] | 98.4 | 96.1 | 104 | 96 | 97.5 | 105 | 113 | 105 | 98 | 95.5 | 93.8 | 96.8 | 105 | 100 | 106 | 96 | 104 | 99.1 | 102 | 99.3 | 98.9 | 99.8 | 98.6 | 99.4 | 99.4 | > 10 | > 10 | > 10 | > 10 | > 10 | 0 | 0 | 0 | 0 | 0
